Source: ChEMBL document CHEMBL5380850, “Discovery of the First Raptor (Regulatory-Associated Protein of mTOR) Inhibitor as a New Type of Antiadipogenic Agent” (J Med Chem, 2023)
Activity calls are given as the source filed them. No cut-off for these calls is given here.

tested on: 3T3-L1; assay: Anti-adipogenic activity against mouse 3T3-L1 cells assessed as decrease in triglyceride level at 1 uM by Oil Red O staining based spectroscopic analysis; assay type: functional; set-up: scale not given: the % may be the effect or the level left; conditions: not given

Structure (SMILES) | Activity [%]
C=C(C)[C@@]12OC3(/C=C/C=C/CCCCC)O[C@@H]1[C@@H]1[C@@H]4O[C@]4(CO)[C@@H](O)[C@]4(O)C(=O)C(C)=C[C@H]4[C@@]1(O3)[C@H](C)[C@H]2OC(=O)c1ccccc1 | >50
C=C(C)[C@@]12OC3(c4ccccc4)O[C@@H]1[C@@H]1[C@@H]4O[C@]4(COC(=O)c4ccccc4)[C@@H](O)[C@]4(O)C(=O)C(C)=C[C@H]4[C@@]1(O3)[C@H](C)[C@H]2OC(=O)c1ccccc1 | >50
C=C(C)[C@@]12OC3(c4ccccc4)O[C@@H]1[C@@H]1[C@@H]4O[C@]4(COC(C)=O)[C@@H](O)[C@]4(O)C(=O)C(C)=C[C@H]4[C@@]1(O3)[C@H](C)[C@H]2OC(=O)c1ccccc1 | >50
C=C(C)[C@@]12OC3(c4ccccc4)O[C@@H]1[C@@H]1[C@@H](Cl)[C@@](O)(CO)[C@@H](O)[C@]4(O)C(=O)C(C)=C[C@H]4[C@@]1(O3)[C@H](C)[C@H]2OC(=O)c1ccccc1 | >50
C=C(C)[C@@]12OC3(/C=C/C=C/CCCCC)O[C@@H]1[C@@H]1[C@@H]4O[C@]4(COC(=O)c4ccccc4)[C@@H](O)[C@]4(O)C(=O)C(C)=C[C@H]4[C@@]1(O3)[C@H](C)[C@H]2OC(C)=O | >50
C=C(C)[C@@]12OC3(c4ccccc4)O[C@@H]1[C@@H]1[C@@H]4O[C@]4(COC(C)=O)[C@@H](O)[C@]4(O)C(=O)C(C)=C[C@H]4[C@@]1(O3)[C@H](C)[C@H]2OC(C)=O | >50
C=C(C)[C@@]12OC3(c4ccccc4)O[C@@H]1[C@@H]1[C@@H]4O[C@]4(CO)[C@@H](O)[C@]4(O)C(=O)C(C)=C[C@H]4[C@@]1(O3)[C@H](C)[C@H]2OC(=O)c1ccccc1 | >50
C=C(C)[C@@]12OC3(/C=C/C=C/CCCCC)O[C@@H]1[C@@H]1[C@@H]4O[C@]4(COC(C)=O)[C@@H](O)[C@]4(O)C(=O)C(C)=C[C@H]4[C@@]1(O3)[C@H](C)[C@H]2OC(=O)c1ccccc1 | >50
C=C(C)[C@@]12OC3(c4ccccc4)O[C@@H]1[C@@H]1[C@@H]4O[C@]4(CO)[C@@H](O)[C@]4(O)C(=O)C(C)=C[C@H]4[C@@]1(O3)[C@H](C)[C@H]2OC(=O)CC | >50
C=C(C)[C@@]12OC3(c4ccccc4)O[C@@H]1[C@@H]1[C@@H](Cl)[C@@](O)(CO)[C@@H](O)[C@]4(O)C(=O)C(C)=C[C@H]4[C@@]1(O3)[C@H](C)[C@H]2OC(C)=O | >50
C=C(C)[C@@]12OC3(c4ccccc4)O[C@@H]1[C@@H]1[C@@H]4O[C@]4(CO)[C@@H](O)[C@]4(O)C(=O)C(C)=C[C@H]4[C@@]1(O3)[C@H](C)[C@H]2OC(C)=O | >50
C=C(C)[C@@]12OC3(/C=C/C=C/CCCCC)O[C@@H]1[C@@H]1[C@@H]4O[C@]4(CO)[C@@H](O)[C@]4(O)C(=O)C(C)=C[C@H]4[C@@]1(O3)[C@H](C)[C@H]2OC(C)=O | >50
C=C(C)[C@@]12OC3(/C=C/C=C/CCCCC)O[C@@H]1[C@@H]1[C@@H]4O[C@]4(CO)[C@@H](O)[C@]4(O)C(=O)C(C)=C[C@H]4[C@@]1(O3)[C@H](C)[C@H]2OC(=O)CCC | >50
C=C(C)[C@@]12OC3(c4ccccc4)O[C@@H]1[C@@H]1[C@@H]4O[C@]4(CO)[C@@H](O)[C@]4(O)C(=O)C(C)=C[C@H]4[C@@]1(O3)[C@H](C)[C@H]2OC(=O)CCC | >50
C=C(C)[C@@]12OC3(/C=C/C=C/CCCCC)O[C@@H]1[C@@H]1[C@@H]4O[C@]4(COC(C)=O)[C@@H](OC(C)=O)[C@]4(O)C(=O)C(C)=C[C@H]4[C@@]1(O3)[C@H](C)[C@H]2OC(=O)c1ccccc1 | >50
C=C(C)[C@@]12OC3(c4ccccc4)O[C@@H]1[C@@H]1[C@H](O)[C@](Cl)(CO)[C@@H](O)[C@]4(O)C(=O)C(C)=C[C@H]4[C@@]1(O3)[C@H](C)[C@H]2OC(C)=O | >50
C=C(C)[C@@]12OC3(c4ccccc4)O[C@@H]1[C@@H]1[C@@H]4O[C@]4(COC(=O)c4ccccc4)[C@@H](O)[C@]4(O)C(=O)C(C)=C[C@H]4[C@@]1(O3)[C@H](C)[C@H]2OC(C)=O | >50
C=C(C)[C@@]12OC3(c4ccccc4)O[C@@H]1[C@@H]1[C@@H](Cl)[C@@](O)(COC(=O)c4ccccc4)[C@@H](O)[C@]4(O)C(=O)C(C)=C[C@H]4[C@@]1(O3)[C@H](C)[C@H]2OC(C)=O | >50
C=C(C)[C@@]12OC3(c4ccccc4)O[C@@H]1[C@@H]1[C@@H]4O[C@]4(CO)[C@@H](O)[C@]4(O)C(=O)[C@@H](C)C[C@H]4[C@@]1(O3)[C@H](C)[C@H]2OC(=O)c1ccccc1 | >50
C=C(C)[C@@]12OC3(c4ccccc4)O[C@@H]1[C@@H]1[C@H](O)[C@](Cl)(CO)[C@@H](O)[C@]4(O)C(=O)C(C)=C[C@H]4[C@@]1(O3)[C@H](C)[C@H]2OC(=O)c1ccccc1 | >50
C=C(C)[C@@]12OC3(/C=C/C=C/CCCCC)O[C@@H]1[C@@H]1[C@@H]4O[C@]4(COC(C)=O)[C@@H](OC(C)=O)[C@]4(O)C(=O)C(C)=C[C@H]4[C@@]1(O3)[C@H](C)[C@H]2OC(C)=O | >50
C=C(C)[C@@]12OC3(/C=C/C=C/CCCCC)O[C@@H]1[C@@H]1[C@@H]4O[C@]4(COC(C)=O)[C@@H](O)[C@]4(O)C(=O)C(C)=C[C@H]4[C@@]1(O3)[C@H](C)[C@H]2OC(C)=O | >50

tested on: 3T3-L1; assay: Anti-adipogenic activity against mouse 3T3-L1 cells assessed as decrease in triglyceride level incubated for […] by Oil Red O staining based microscopic analysis; assay type: functional, cell-based; conditions: not given

Structure (SMILES) | IC50 [µM]
C=C(C)[C@@]12OC3(c4ccccc4)O[C@@H]1[C@@H]1[C@H](O)[C@](Cl)(COC(=O)c4ccccc4)[C@@H](OC(=O)CCCCCNC(=O)CCCC[C@@H]4SC[C@@H]5NC(=O)N[C@@H]54)[C@]4(O)C(=O)C(C)=C[C@H]4[C@@]1(O3)[C@H](C)[C@H]2OC(C)=O | 1.05

biological target: Regulatory-associated protein of mTOR (Mus musculus) (UniProt Q8K4Q0); assay: Binding affinity to Raptor in mouse 3T3-L1 cells at 1 to 10 uM incubated overnight by pull-down assay; conditions: dose 1-10 µM
Sequence (Q8K4Q0 whole entry, looked up): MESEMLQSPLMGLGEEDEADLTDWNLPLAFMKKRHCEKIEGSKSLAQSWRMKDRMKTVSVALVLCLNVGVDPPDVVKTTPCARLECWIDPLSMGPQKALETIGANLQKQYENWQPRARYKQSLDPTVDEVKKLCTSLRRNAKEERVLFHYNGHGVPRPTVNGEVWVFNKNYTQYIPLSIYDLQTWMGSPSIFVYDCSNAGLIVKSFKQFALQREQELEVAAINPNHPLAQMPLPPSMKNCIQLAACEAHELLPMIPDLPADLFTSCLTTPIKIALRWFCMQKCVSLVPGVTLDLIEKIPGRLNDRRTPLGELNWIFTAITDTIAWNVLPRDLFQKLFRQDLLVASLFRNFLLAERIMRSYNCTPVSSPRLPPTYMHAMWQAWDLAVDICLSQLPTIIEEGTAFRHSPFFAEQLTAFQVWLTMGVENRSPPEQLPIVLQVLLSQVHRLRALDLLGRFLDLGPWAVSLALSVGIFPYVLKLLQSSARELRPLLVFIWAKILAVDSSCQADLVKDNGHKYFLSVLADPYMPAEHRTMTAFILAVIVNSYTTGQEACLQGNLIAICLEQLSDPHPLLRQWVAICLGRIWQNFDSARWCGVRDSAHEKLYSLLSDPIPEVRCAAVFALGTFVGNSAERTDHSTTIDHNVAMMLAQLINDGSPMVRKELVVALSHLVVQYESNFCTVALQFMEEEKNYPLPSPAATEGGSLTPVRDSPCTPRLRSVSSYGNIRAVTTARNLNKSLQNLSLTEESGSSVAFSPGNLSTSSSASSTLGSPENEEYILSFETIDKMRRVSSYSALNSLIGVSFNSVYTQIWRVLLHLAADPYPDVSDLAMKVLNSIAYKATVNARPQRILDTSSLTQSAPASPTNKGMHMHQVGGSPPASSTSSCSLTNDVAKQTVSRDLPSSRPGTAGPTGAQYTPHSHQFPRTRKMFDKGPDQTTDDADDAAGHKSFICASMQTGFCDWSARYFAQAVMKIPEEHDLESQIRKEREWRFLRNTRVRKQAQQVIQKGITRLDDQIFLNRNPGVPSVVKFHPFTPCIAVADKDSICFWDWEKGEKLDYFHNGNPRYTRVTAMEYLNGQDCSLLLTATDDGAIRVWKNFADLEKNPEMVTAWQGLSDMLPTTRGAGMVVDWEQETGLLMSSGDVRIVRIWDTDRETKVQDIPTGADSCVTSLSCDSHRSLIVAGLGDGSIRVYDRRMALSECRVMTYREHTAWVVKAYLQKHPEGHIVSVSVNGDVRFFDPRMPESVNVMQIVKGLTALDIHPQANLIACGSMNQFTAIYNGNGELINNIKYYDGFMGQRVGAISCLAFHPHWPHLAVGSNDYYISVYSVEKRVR

Structure (SMILES) | Activity
C=C(C)[C@@]12OC3(c4ccccc4)O[C@@H]1[C@@H]1[C@H](O)[C@](Cl)(COC(=O)c4ccccc4)[C@@H](OC(=O)CCCCCNC(=O)CCCC[C@@H]4SC[C@@H]5NC(=O)N[C@@H]54)[C@]4(O)C(=O)C(C)=C[C@H]4[C@@]1(O3)[C@H](C)[C@H]2OC(C)=O | Active
